We go through four compounds from patent US9579334B2, “Iminosugars and methods of treating viral diseases” (Emergent Virology LLC, priority 2009, dated 2017).

One data set relates to Dengue 2 strain S221. In words: Protection of AG129 mice against Dengue virus (survival). It counts as in vivo. The procedure: FIGS. 10 and 11 A-C show protection of mice against Dengue virus by UV-4 (N9-DNJ). In this model, AG129 mice, which are 129/Sv mice lacking receptors for both alpha/beta interferon and IFN-gamma, are infected with Dengue 2 strain S221 via intravenous injection. The mice die of TNF-a mediated acute/early death 4-5 days after infection, see Shresta, S., et al., J Virol, 2006. 80(20): p. 10208-17. Each experiment group contained 5 mice sex matched and 5-6 weeks old. The mice were injected intravenously via the tail vein with 10^11 genomic equivalents of DENV2 strain S221 30 min after the first N9-DNJ dose was administered orally. The N9-DNJ was administered orally twice daily at 200, 100, 50 and 10 mg/kg. The antiviral compound Ribavirin 100 mg/kg was given subcutaneously once daily and included as a positive control together with a PBS-only group. Animals displaying severe illness during the experiment (as determined by 20% weight loss, extreme lethargy, ruffled coat, or paralysis) were euthanized.

The next data set concerns Vero cells. In words: Cytotoxicity towards Vero cells, LDH assay. In kind it is cell-based, African green monkey. To be noted: for toxicity to the Vero cells: 0.122 up to 500 uM. The procedure:
Procedure. NB-DNJ, NN-DNJ and N7-O-DNJ at concentrations from 0.122 up to 500 uM were tested for cytotoxicity towards Vero cells. Vero cells (Afrika green monkey kidney epithelial cell line) obtained from American Type Culture Collection (ATCC, Manassas, Va.) were plated in cell culture treated 96-well flat bottom plates 24 hr prior to assay. Test were done in modified Eagle medium, supplemented with 2% fetal bovine serum, 2 mM L-glutamine, 100 U/ml penicillin, 100 ug/ml streptomycin, starting at 500 μM compounds, decreasing to 0.122 uM. Cells were cultured at 37° C., 5% CO2 incubator and the plates were assayed by LDH assay (CytoTox96, Promega, Wis.) according to the manufacturer's recommendations for induced cellular damage (release of cytoplasmic enzyme lactate dehydrogenase). OD readings were used to calculate and compare percent cytopathic effect of cells treated with compounds or controls. […] NN-DNJ begins to show toxicity to the cells at concentrations above ˜20 uM.

Consider `COCCCCCCCCCN1C[C@H](O)[C@@H](O)[C@H](O)[C@H]1CO` [N9-DNJ, N-(9-Methoxynonyl) deoxynojirimycin], for which the figures for the “survival, p vs. PBS” value in the data set on Dengue 2 strain S221 (10 mg/kg orally twice daily) and in the data set on Dengue 2 strain S221 (100 mg/kg orally twice daily) were 0.034 and 0.002, respectively. Also, in the data set with Dengue 2 strain S221 (DENV2 S221 i.v., orally twice daily at 200, 100, 50 and 10 mg/kg, all drug concentrations), the survival result is reported as “statistically significant improvement in survival”. With `CCCCCCCCCN1C[C@H](O)[C@@H](O)[C@H](O)[C@H]1CO` [NN-DNJ, N-Nonyl dexoynojirimycin], the “concentration above which toxicity to the cells begins to show” value in the data set on Vero cells (Vero cells) is over 20 µM. Turning to `CCCCN1C[C@H](O)[C@@H](O)[C@H](O)[C@H]1CO` [NB-DNJ, N-Butyl deoxynojirimycin], in the data set on Vero cells, the “toxicity to the Vero cells” value is “non-toxic”.

On to `CCCOCCCCCCN1C[C@H](O)[C@@H](O)[C@H](O)[C@H]1CO` [N7-O-DNJ, N-(7-Oxadecyl)deoxynojirimycin], for which the “toxicity to the Vero cells” value in the data set with Vero cells is on record as “non-toxic”.
